These results are taken from patent US6770147B2, “METHOD FOR THE PRODUCTION OF SUGAR OR SUGAR-CONTAINING PRODUCTS FROM SUGAR-CONTAINING VEGETABLE RAW MATERIALS, SUGAR AND SUGAR-CONTAINING PRODUCTS MADE BY THE METHOD, AND EXTRACTION SOLUTION FOR USE IN THE METHOD” (Zuckerforschung Tulln Gesellschaft m.b.H., priority 2000, dated 2004).

In one assay the test system is thermophilic bacteria. Kind of assay: pH drop (acid formation) of thermophilic bacteria culture: liquid nutrient medium inoculated with crude juice, 65° C. Format: cell-based, thermophilic bacteria from sugar beet crude juice. The following applies: Example 9; for pH / ΔpH/h: 0.2 ml solution each added at pH 6.30, 6.28, 6.26, 6.24. How it is done:
A liquid nutrient medium as used in microbiology and including 10 g bactopepton, 5 g meat extract, 5 g yeast extract, 1 g glucose, 1 g K2HPO4, 0.3 g KNO3, 0.1 g MgSO4*7H2O and 0.01 g FeSO4*7H2O per liter distilled water, is sterilized in the usual manner for 20 minutes at 120° C. and inoculated with 20 ml crude juice from large-scale sugar beet extraction in a 500 ml vessel heated at 65° C., with the pH being recorded on a recorder. […]
A liquid nutrient medium as used in Example 1 is inoculated with 40 ml crude juice from a sugar factory per liter, stirred at 65° C. and the pH drop is followed. A solution of 15 mg pure neoabietic acid (99%) per 1.5 ml ethanol is prepared.

In assay [1] the test system is osmotolerant microorganisms. Kind of assay: pH drop of syrup with 60% dry substances during storage at 22° C. Format: cell-based. The following applies: 350 ppm. An excerpt:
A further pH drop is to be avoided or at least delayed by the addition of an agent. The juice is supplemented with rosin acids at a concentration of 200 ppm in the form of a 20% sodium salt solution.

Molecules are shown by their SMILES.

For `CC(C)=C1C=C2CCC3C(C)(C(=O)O)CCCC3(C)C2CC1` (stereo not drawn) [neoabietic acid], in the assay with thermophilic bacteria (ethanol solution, four additions of 0.2 ml, 40 ml crude juice per liter, 65° C.), the “concentration at which the pH drop is stopped” value came out at 8 mg per liter. In addition, the pH in the assay with thermophilic bacteria (Time 0 h) is 6.90; in the assay on thermophilic bacteria (Time 1 h), 6.90; in the assay on thermophilic bacteria (Time 2 h), 6.89; in the assay on thermophilic bacteria (Time 3 h) it was 6.87; in the assay on thermophilic bacteria (Time 3.5 h), 6.86; with thermophilic bacteria (Time 4 h) it was 6.85. Also, the pH in the assay with thermophilic bacteria (Time 4.5 h) was 6.82; with thermophilic bacteria (Time 5 h) it was 6.72; in the assay on thermophilic bacteria (Time 5.5 h) it was 6.54; in the assay on thermophilic bacteria (Time 5.8 h), 6.30; with thermophilic bacteria (Time 6 h) it was 6.24; in the assay on thermophilic bacteria (Time 6.5 h) it was 6.24. Besides, the pH in the assay on thermophilic bacteria (Time 7 h) and with thermophilic bacteria (Time 8 h) was 6.25 throughout. For the same compound, the ΔpH/h is listed as 0.00 pH/h in the assay on thermophilic bacteria (Time 1 h); 0.01 pH/h in the assay on thermophilic bacteria (Time 2 h); 0.02 pH/h in the assay with thermophilic bacteria (Time 3 h); 0.02 pH/h with thermophilic bacteria (Time 3.5 h); 0.02 pH/h with thermophilic bacteria (Time 4 h); 0.06 pH/h in the assay with thermophilic bacteria (Time 4.5 h). Moreover, the ΔpH/h is on record as 0.20 pH/h with thermophilic bacteria (Time 5 h); 0.36 pH/h with thermophilic bacteria (Time 5.5 h); 0.80 pH/h in the assay on thermophilic bacteria (Time 5.8 h); 0.30 pH/h with thermophilic bacteria (Time 6 h); 0.00 pH/h with thermophilic bacteria (Time 6.5 h); −0.02 pH/h in the assay with thermophilic bacteria (Time 7 h). In addition, in the assay on thermophilic bacteria (Time 8 h), the ΔpH/h is 0.00 pH/h.

With `C=O` [HCHO, formaldehyde], the ph drop is 0 in assay [1] (Observation time 0 days), 0.39 in assay [1] (Observation time 1 days), 0.48 in assay [1] (Observation time 2 days) and 0.67 in assay [1] (Observation time 5 days). The ph value in assay [1] (Observation time 0 days) is 8.44; in assay [1] (Observation time 1 days), 8.05; in assay [1] (Observation time 2 days) it was 7.96; in assay [1] (Observation time 5 days), 7.77.
